According to patent publication US4308380A, “2-Lower alkyl-2 or 3-cephem-4-carboxylic acid derivatives” (Fujisawa Pharmaceutical Co., Ltd., priority 1973, dated 1981):
Values after ≈ are worked out from the molar mass of the structure shown. Where a name gives a salt, the structure may show the parent alone. Read-outs that look alike come from different tables or passages of the source.

Tests used:
Type in all cases: cell-based
[1] = tested on: Staphylococcus aureus 209 P JC-1; assay: in vitro antimicrobial activity, two-fold agar-plate dilution method, S. aureus 209 P JC-1; settings: 20 hours
Experimental: (§1) In vitro antimicrobial activity was determined by the two-fold agar-plate dilution method as described below.
(§2) One loopful of an overnight culture of each test strain in Trypticase-soy broth (10^8 viable cells per ml) was streaked on heart infusion agar (HI-agar) containing graded concentration of antibiotics, and the minimum inhibitory concentration (MIC) was expressed in terms of meg/ml after incubation at 37° C. for 20 hours.
(§3) The data in Table 1 below present a comparison between the 2-(C1 -C6 alkyl)-cephem compounds of the present invention and known cephem compounds structurally analogous to the present compounds, differing only by alkyl substitution in the 3-position. The in vitro tests of antimicrobial activity of the compared compounds were determined by the two-fold agar plate dilution method described as follows:
as §2, with “(HI sugar)” for “(HI-agar)”, “mcg/ml” for “meg/ml”

[2] = tested on: Staphylococcus aureus 206; assay: in vitro antimicrobial activity, two-fold agar plate dilution method, S. aureus 206; settings: Table 1, S. aureus 206, 37° C., 20 hours, read-out: minimum inhibitory concentration (MIC)
Experimental: (§4) The in vitro tests of antimicrobial activity of the compared compounds were determined by the two-fold agar plate dilution method described as follows: […]

[3] = tested on: Staphylococcus aureus 213; assay: in vitro antimicrobial activity, two-fold agar plate dilution method, S. aureus 213; settings: Table 1, S. aureus 213, 37° C., 20 hours, read-out: minimum inhibitory concentration (MIC)
Experimental: as §4

[4] = tested on: Staphylococcus aureus 226; assay: in vitro antimicrobial activity, two-fold agar plate dilution method, S. aureus 226; settings: Table 1, S. aureus 226, 37° C., 20 hours, read-out: minimum inhibitory concentration (MIC)
Experimental: as §4

[5] = tested on: Staphylococcus aureus 277; assay: in vitro antimicrobial activity, two-fold agar plate dilution method, S. aureus 277; settings: Table 1, S. aureus 277, 37° C., 20 hours, read-out: minimum inhibitory concentration (MIC)
Experimental: as §4

[6] = tested on: Staphylococcus aureus 278; assay: in vitro antimicrobial activity, two-fold agar plate dilution method, S. aureus 278; settings: Table 1, S. aureus 278, 37° C., 20 hours, read-out: minimum inhibitory concentration (MIC)
Experimental: as §4

[7] = tested on: Bacillus subtilis ATCC-6633; assay: in vitro antimicrobial activity, two-fold agar-plate dilution method, B. subtilis ATCC-6633; settings: 20 hours
Experimental: as §1, §2, §3
as §2, with “(HI sugar)” for “(HI-agar)”, “mcg/ml” for “meg/ml”

[8] = 209PJC1, Table 1, S. aureus 209 P JC-1, 37° C., read-out: minimum inhibitory concentration (MIC)
[9] = S. aureus 209-P JC-1, 37° C., HI-agar, read-out: MIC
[10] = ATCC6633, B. subtilis ATCC-6633, 37° C., HI-agar, read-out: MIC
[11] = ATCC6633, Table 1, B. subtilis ATCC-6633, 37° C., read-out: minimum inhibitory concentration (MIC)

MIC [1, 8] [µg/mL] | MIC [1, 9] [µg/mL] | MIC [2] [µg/mL] | MIC [3] [µg/mL] | MIC [4] [µg/mL] | MIC [5] [µg/mL] | MIC [6] [µg/mL] | MIC [7, 10] [µg/mL] | MIC [7, 11] [µg/mL] | SMILES
1.56 (≈ 3.09 µM) | 1.56 (≈ 3.09 µM) | 3.13 (≈ 6.19 µM) | 3.13 (≈ 6.19 µM) | 1.56 (≈ 3.09 µM) | 12.5 (≈ 24.7 µM) | 3.13 (≈ 6.19 µM) | 3.13 (≈ 6.19 µM) | 3.13 (≈ 6.19 µM) | CC1C=C(C(=O)O)N2C(=O)C(NC(=O)C(NC(=O)CSc3nncs3)c3ccccc3)[C@H]2S1 (stereo partly drawn) [Applicants' compound (1), 2-Methyl-7-[N-[2-(1,3,4-thiadiazol-2-ylthio)acetyl]phenylglycyl]amino-3-cephem-4-carboxylic acid]
0.78 (≈ 2.2 µM) | 0.78 (≈ 2.2 µM) | 0.78 (≈ 2.2 µM) | 3.13 (≈ 8.83 µM) | 3.13 (≈ 8.83 µM) | 3.13 (≈ 8.83 µM) | 3.13 (≈ 8.83 µM) | 0.78 (≈ 2.2 µM) | 0.78 (≈ 2.2 µM) | CC1C=C(C(=O)O)N2C(=O)C(NC(=O)C(O)c3cccs3)[C@H]2S1 (stereo partly drawn) [Applicants' compound (2), 2-Methyl-7-[2-hydroxy-2-(2-thienyl)acetamido]-3-cephem-4-carboxylic acid]
1.56 (≈ 3.17 µM) | 1.56 (≈ 3.17 µM) | 0.39 (≈ 0.792 µM) | 0.39 (≈ 0.792 µM) | 0.2 (≈ 0.406 µM) | 0.78 (≈ 1.58 µM) | 0.39 (≈ 0.792 µM) | 6.25 (≈ 12.7 µM) | 6.25 (≈ 12.7 µM) | CC1C=C(C(=O)O)N2C(=O)C(NC(=O)C(C(=O)Oc3ccc4c(c3)CCC4)c3ccccc3)[C@H]2S1 (stereo partly drawn) [Applicants' compound (3), 2-Methyl-7-[2-(5-indanyloxy)carbonyl-2-phenylacetamido]-3-cephem-4-carboxylic acid]
0.39 (≈ 0.86 µM) | 0.39 (≈ 0.86 µM) | 0.78 (≈ 1.72 µM) | 1.56 (≈ 3.44 µM) | 0.78 (≈ 1.72 µM) | 6.25 (≈ 13.8 µM) | 1.56 (≈ 3.44 µM) | 0.78 (≈ 1.72 µM) | 0.78 (≈ 1.72 µM) | CC1C=C(C(=O)O)N2C(=O)C(NC(=O)C(OC(=O)c3ccncc3)c3ccccc3)[C@H]2S1 (stereo partly drawn) [Applicants' compound (4), 2-Methyl-7-(2-isonicotinoyloxy-2-phenylacetamido)-3-cephem-4-carboxylicacid]
0.78 (≈ 2.3 µM) | 0.78 (≈ 2.3 µM) | 1.56 (≈ 4.61 µM) | 1.56 (≈ 4.61 µM) | 1.56 (≈ 4.61 µM) | 1.56 (≈ 4.61 µM) | 1.56 (≈ 4.61 µM) | 0.39 (≈ 1.15 µM) | 0.39 (≈ 1.15 µM) | CC1C=C(C(=O)O)N2C(=O)C(NC(=O)Cc3cccs3)[C@H]2S1 (stereo partly drawn) [Applicants' compound (5), 2-Methyl-7-[2-(2-thienyl)acetamido]-3-cephem-4-carboxylic acid]
0.1 (≈ 0.273 µM) | 0.1 (≈ 0.273 µM) | 0.39 (≈ 1.06 µM) | 0.3 (≈ 0.818 µM) | 0.2 (≈ 0.545 µM) | 0.78 (≈ 2.13 µM) | 0.39 (≈ 1.06 µM) | 0.2 (≈ 0.545 µM) | 0.2 (≈ 0.545 µM) | CC1C=C(C(=O)O)N2C(=O)C(NC(=O)Cc3cccc(Cl)c3)[C@H]2S1 (stereo partly drawn) [Applicants' compound (6), 2-Methyl-7-[2-(3-chlorophenyl)acetamido]-3-cephem-4-carboxylic acid]
0.78 (≈ 2.24 µM) | 0.78 (≈ 2.24 µM) | 1.56 (≈ 4.48 µM) | 1.56 (≈ 4.48 µM) | 1.56 (≈ 4.48 µM) | 6.25 (≈ 17.9 µM) | 1.56 (≈ 4.48 µM) | 0.39 (≈ 1.12 µM) | 0.39 (≈ 1.12 µM) | CC1C=C(C(=O)O)N2C(=O)C(NC(=O)C(O)c3ccccc3)[C@H]2S1 (stereo partly drawn) [Applicants' compound (7), 2-Methyl-7-(2-hydroxy-2-phenylacetamido)-3-cephem-4-carboxylic acid]
0.78 (≈ 2.35 µM) | 0.78 (≈ 2.35 µM) | 1.56 (≈ 4.69 µM) | 1.56 (≈ 4.69 µM) | 1.56 (≈ 4.69 µM) | 3.13 (≈ 9.42 µM) | 1.56 (≈ 4.69 µM) | 0.2 (≈ 0.602 µM) | 0.2 (≈ 0.602 µM) | CC1C=C(C(=O)O)N2C(=O)C(NC(=O)Cc3ccccc3)[C@H]2S1 (stereo partly drawn) [Applicants' compound (8), 2-Methyl-7-(2-phenylacetamido)-3-cephem-4-carboxylic acid]
0.2 (≈ 0.549 µM) | 0.2 (≈ 0.549 µM) | 0.39 (≈ 1.07 µM) | 0.39 (≈ 1.07 µM) | 0.39 (≈ 1.07 µM) | 1.56 (≈ 4.28 µM) | 0.78 (≈ 2.14 µM) | 0.2 (≈ 0.549 µM) | 0.2 (≈ 0.549 µM) | CC1C=C(C(=O)O)N2C(=O)C(NC(=O)CSc3ccccc3)C2S1 (stereo not drawn) [Applicants' compound (9), 2-Methyl-7-(2-phenylthioacetamido)-3-cephem-4-carboxylic acid]
1.56 (≈ 4.18 µM) | 1.56 (≈ 4.18 µM) | 1.56 (≈ 4.18 µM) | 1.56 (≈ 4.18 µM) | 1.56 (≈ 4.18 µM) | 12.5 (≈ 33.5 µM) | 1.56 (≈ 4.18 µM) | 0.39 (≈ 1.04 µM) | 0.39 (≈ 1.04 µM) | CC1C=C(C(=O)O)N2C(=O)C(NC(=O)C(N=[N+]=[N-])c3ccccc3)[C@H]2S1 (stereo partly drawn) [Applicants' compound (10), 2-Methyl-7-(2-azido-2-phenylacetamido)-3-cephem-4-carboxylic acid]
1.56 (≈ 4.19 µM) | 1.56 (≈ 4.19 µM) | 3.13 (≈ 8.4 µM) | 6.25 (≈ 16.8 µM) | 3.13 (≈ 8.4 µM) | 3.13 (≈ 8.4 µM) | 6.25 (≈ 16.8 µM) | 0.78 (≈ 2.09 µM) | 0.78 (≈ 2.09 µM) | CC1C=C(C(=O)O)N2C(=O)C(NC(=O)CSc3nncs3)[C@H]2S1 (stereo partly drawn) [Applicants' compound (11), 2-Methyl-7-[2-(1,3,4-thiadiazol-2-ylthio)acetamido]-3-cephem-4-carboxylic acid]
3.13 (≈ 9.2 µM) | 3.13 (≈ 9.2 µM) | 3.13 (≈ 9.2 µM) | 6.25 (≈ 18.4 µM) | 3.13 (≈ 9.2 µM) | 6.25 (≈ 18.4 µM) | 6.25 (≈ 18.4 µM) | 1.56 (≈ 4.58 µM) | 1.56 (≈ 4.58 µM) | CC1C=C(C(=O)O)N2C(=O)C(NC(=O)Cc3cnsn3)[C@H]2S1 (stereo partly drawn) [Applicants' compound (12), 2-Methyl-7-[2-(1,2,5-thiadiazol-3-yl)acetamido]-3-cephem-4-carboxylic acid]
3.13 (≈ 11.1 µM) | 3.13 (≈ 11.1 µM) | 6.25 (≈ 22.2 µM) | 12.5 (≈ 44.4 µM) | 6.25 (≈ 22.2 µM) | 3.13 (≈ 11.1 µM) | 6.25 (≈ 22.2 µM) | 3.13 (≈ 11.1 µM) | 3.13 (≈ 11.1 µM) | CC1C=C(C(=O)O)N2C(=O)C(NC(=O)CC#N)[C@H]2S1 (stereo partly drawn) [Applicants' compound (13), 2-Methyl-7-(2-cyanoacetamido)-3-cephem-4-carboxylic acid]
1.56 (≈ 4.75 µM) | 1.56 (≈ 4.75 µM) | 3.13 (≈ 9.53 µM) | 6.25 (≈ 19 µM) | 3.13 (≈ 9.53 µM) | 1.56 (≈ 4.75 µM) | 3.13 (≈ 9.53 µM) | 1.56 (≈ 4.75 µM) | 1.56 (≈ 4.75 µM) | C=CCSCC(=O)NC1C(=O)N2C(C(=O)O)=CC(C)S[C@H]12 (stereo partly drawn) [Applicants' compound (14), 2-Methyl-7-[2-(allylthio)acetamido]-3-cephem-4-carboxylic acid]
3.13 (≈ 9.39 µM) | 3.13 (≈ 9.39 µM) | 6.25 (≈ 18.7 µM) | 6.25 (≈ 18.7 µM) | 6.25 (≈ 18.7 µM) | 25 (≈ 75 µM) | 6.25 (≈ 18.7 µM) | 0.78 (≈ 2.34 µM) | 0.78 (≈ 2.34 µM) | CC1C=C(C(=O)O)N2C(=O)C(NC(=O)Cc3cccnc3)[C@H]2S1 (stereo partly drawn) [Applicants' compound (15), 2-Methyl-7-[2-(3-pyridyl)acetamido]-3-cephem-4-carboxylic acid]
3.13 (≈ 7.95 µM) | 3.13 (≈ 7.95 µM) | 6.25 (≈ 15.9 µM) | 25 (≈ 63.5 µM) | 6.25 (≈ 15.9 µM) | 25 (≈ 63.5 µM) | 12.5 (≈ 31.8 µM) | 6.25 (≈ 15.9 µM) | 6.25 (≈ 15.9 µM) | CSc1ccc(C(N)C(=O)NC2C(=O)N3C(C(=O)O)=CC(C)S[C@H]23)cc1 (stereo partly drawn) [Applicants' compound (16), 2-Methyl-7-[2-amino-2-(4-methylthiophenyl)acetamido]-3-cephem-4-carboxylicacid]
1.56 (≈ 4.4 µM) |  | 3.13 (≈ 8.83 µM) | 1.56 (≈ 4.4 µM) | 1.56 (≈ 4.4 µM) | 1.56 (≈ 4.4 µM) | 1.56 (≈ 4.4 µM) |  | 3.13 (≈ 8.83 µM) | CC1C=C(C(=O)O)N2C(=O)C(NC(=O)Cc3csc(N)n3)[C@H]2S1 (stereo partly drawn) [Applicants' compound (17), 2-Methyl-7-[2-(2-aminothiazol-4-yl)acetamido]-3-cephem-4-carboxylic acid]
6.25 |  | 6.25 | 25 | 12.5 | 12.5 | 12.5 |  | 1.56 | CC1=C(C(=O)O)N2C(=O)C(NC(=O)C(O)c3cccs3)C2SC1 (stereo not drawn) [cited compound (2), 3-Methyl-7-[2-hydroxy-2-(2-thienyl)acetamido]-3-cephem-4-carboxylic acid (sodium salt), reference compound]
1.56 (≈ 3.44 µM) |  | 12.5 (≈ 27.6 µM) | 12.5 (≈ 27.6 µM) | 12.5 (≈ 27.6 µM) | 12.5 (≈ 27.6 µM) | 12.5 (≈ 27.6 µM) |  | 0.78 (≈ 1.72 µM) | CC1=C(C(=O)O)N2C(=O)C(NC(=O)C(OC(=O)c3ccncc3)c3ccccc3)C2SC1 (stereo not drawn) [cited compound (4), reference compound]
